# Laboratory results taken from patent publication US20110165115A1, “SYNERGISTIC ATTRACTANTS FOR PESTIFEROUS SOCIAL INSECTS” (STERLING INTERNATIONAL INC., priority 2010, published 2011).
# Columns and labels:
# V. pensylvanica = assay: Field trapping Experiment 2, DMNT dose-response with W•H•Y top attractants; assay type: in vivo, Vespula pensylvanica; conditions: Exp 2, DMNT added to WHY top attractant
# Method: (§1) Three field trapping experiments were carried out during late July to early August 2009, in residential and woody areas around Spokane, Wash., USA, using the newly marketed Rescue® W•H•Y traps (www.rescue.com). As used herein, the W•H•Y trap is a trap in accordance with the description of United States Patent Application Publication No. 2009/0151228. The W•H•Y trap has a top chamber and a bottom chamber. The top chamber is baited with two attractants—one of which is a solid contained in a vial (2-methyl-1-butanol) and the other a liquid mixed with water (acetic acid), herein referred to as the W•H•Y top attractant. The bottom chamber is baited with a liquid attractant (heptyl butyrate) poured onto a cotton pad, herein referred to as the W•H•Y bottom attractant. Separation of the top and bottom attractants (otherwise antagonistic to each other when released from the same chamber) in two chambers was a design feature of this trap and creates two focal attraction sources from one trap for different species of wasps, hornets, and yellowjackets. Traps were hung 1.5-2.0 m above the ground on either the fence or tree branches ca. 5 m apart within each trap line. For each trapping experiment, six sets of traps were deployed with their initial trap positions within each set being randomized. To minimize positional effects and obtain more replications, wasp collections and trap re-randomization were carried out when ≧10-20 wasps were caught in the best trap. Each replicate lasted several days depending on wasp flight activity. Captured wasps were removed from the traps and kept in the zip-bags before taking back to the laboratory for recording of the species, gender status, and catch.
# (§2) Experiment 3 (Aug. 5-13, 2009) was conducted to determine the potential behavioral activity of different doses of (E)-4,8-dimethyl-1,3,7-nonatriene alone. The individual (or different doses) HIPVs were loaded into either polyethylene bags or centrifuge tube type of dispensers, and released from the top of the W•H•Y trap chamber. W•H•Y trap attractants (both top and bottom or top only) alone and water (top chamber only) were included in the test as positive and blank controls, respectively. The dispenser types, loading and release rates of the tested semiochemicals are described in Tables 1, 2 and 3.
# (§3) Trap catch data were converted to proportion (P) of total captured wasps within each replicate. Data were then transformed by arcsin√P to meet the assumptions of normality and homogeneity of variances for ANOVA. Means were compared by ANOVA followed by the Ryan-Einot-Gabriel-Welsh (REGW) multiple Q test (SPSS 16.0 for Windows) at α=0.05.
# V. vulgaris = assay: as above; assay type: in vivo, Vespula vulgaris; conditions: Exp 2, DMNT added to WHY top attractant
# Method: as §1, §2, §3
# P. dominulus = assay: as above; assay type: in vivo, Polistes dominulus; conditions: Exp 2, DMNT added to WHY top attractant
# Method: as §1, §2, §3
# V. atropilosa = assay: Field trapping Experiment 3, different doses of DMNT alone; assay type: in vivo, Vespula atropilosa
# Method: as §1, §2, §3
# D. maculata = assay: as above; assay type: in vivo, Dolichovespula maculata
# Method: as §1
# (§4) Experiment 1 (Jul. 22-30, 2009) tested ten synthetic HIPV candidates [(E)-2-hexenal, (Z)-3-hexen-1-ol, (Z)-3-hexenyl acetate, cis-ocimene, linalool, methyl salicylate, geranyl acetate, trans-β-caryophyllene, trans-β-farnesene and (E)-4,8-dimethyl-1,3,7-nonatriene], including several paper wasp EAD-active compounds (see FIG. 2 for details), to determine their potential synergistic effect on the Rescue® W•H•Y trap attractants to paper wasps, yellowjackets, and hornets. Experiment 2 (Aug. 5-13, 2009) tested behavioral responses of the paper wasps and yellowjackets to the Rescue® W•H•Y trap attractants (top attractants only) and its combination with (E)-4,8-dimethyl-1,3,7-nonatriene, one of the EAD-active and behaviorally significant HIPVs, in a dose-response fashion. Experiment 3 (Aug. 5-13, 2009) was conducted to determine the potential behavioral activity of different doses of (E)-4,8-dimethyl-1,3,7-nonatriene alone. The individual (or different doses) HIPVs were loaded into either polyethylene bags or centrifuge tube type of dispensers, and released from the top of the W•H•Y trap chamber. W•H•Y trap attractants (both top and bottom or top only) alone and water (top chamber only) were included in the test as positive and blank controls, respectively. The dispenser types, loading and release rates of the tested semiochemicals are described in Tables 1, 2 and 3.
# as §3
# V. acadica = assay: as above; assay type: in vivo, Vespula acadica
# Method: as §1, §2, §3
# V. germanica = assay: as above; assay type: in vivo, Vespula germanica
# Method: as §1, §2, §3
# D. arenaria = assay: as above; assay type: in vivo, Dolichovespula arenaria
# Method: as §1, §4, §3
# yellowjackets = assay: Field trapping Experiment 1, top chamber catches; assay type: in vivo; conditions: Exp 1; HIPV combined with W•H•Y attractant (acetic acid and 2-methyl-1-butanol) in the top chamber
# Method: as §1
# (§5) Experiment 3 (Aug. 5-13, 2009) was conducted to determine the potential behavioral activity of different doses of (E)-4,8-dimethyl-1,3,7-nonatriene alone. The individual (or different doses) HIPVs were loaded into either polyethylene bags or centrifuge tube type of dispensers, and released from the top of the W•H•Y trap chamber. […]
# paper wasps = assay: Field trapping Experiment 1, top chamber catches; assay type: in vivo, P. dominulus and P. aurifer; conditions: Exp 1; HIPV combined with W•H•Y attractant (acetic acid and 2-methyl-1-butanol) in the top chamber
# Method: as §1, with “To minimize positional effects and obtain more replications, wasp collections and trap re-randomization were carried out when ≧10-20 wasps were caught in the best trap. Each replicate lasted several days depending on wasp flight activity. Captured wasps were removed from the traps and kept in the zip-bags before taking back to the laboratory for recording of the species, gender status, and catch.” left out
# [1] = tested on: paper wasps and yellowjackets; assay: Field trapping Experiment 2; assay type: in vivo, V. pensylvanica, V. vulgaris and P. dominulus; conditions: Exp 2
# Method: as §1, with “To minimize positional effects and obtain more replications, wasp collections and trap re-randomization were carried out when ≧10-20 wasps were caught in the best trap. Each replicate lasted several days depending on wasp flight activity. Captured wasps were removed from the traps and kept in the zip-bags before taking back to the laboratory for recording of the species, gender status, and catch.” left out
# [2] = tested on: paper wasps, yellowjackets, or hornets; assay: Field trapping Experiment 3, DMNT alone; assay type: in vivo; conditions: Exp 3, different doses alone, without any W•H•Y attractants
# Method: as §1, with “To minimize positional effects and obtain more replications, wasp collections and trap re-randomization were carried out when ≧10-20 wasps were caught in the best trap. Each replicate lasted several days depending on wasp flight activity. Captured wasps were removed from the traps and kept in the zip-bags before taking back to the laboratory for recording of the species, gender status, and catch.” left out
# [3] = tested on: paper wasps and yellowjackets; assay: Field trapping bioassays, synergism with AA/2MB (summary); assay type: in vivo; conditions: at the doses tested
# Method: as §1, §5
# [4] = release rate 0.25, hole 0.5 mm, loading 15 μL
# [5] = release rate 0.5, hole 1 mm, loading 30 μL
# [6] = release rate 1, hole 2 mm, loading 75 μL
# [7] = release rate 1.5, hole 3 mm, loading 175 μL
# [8] = release rate 2, hole 5.5 mm, loading 325 μL
# [9] = Exp 3, release rate 0.25, hole 0.5 mm, loading 15 μL
# [10] = Exp 3, release rate 0.5, hole 1 mm, loading 30 μL
# [11] = Exp 3, release rate 1, hole 2 mm, loading 75 μL
# [12] = Exp 3, release rate 1.5, hole 3 mm, loading 175 μL
# [13] = Exp 3, release rate 2, hole 5.5 mm, loading 325 μL
compound,measurement,setting,value
"C=C/C=C(\C)CCC=C(C)C [(E)-4,8-dimethyl-1,3,7-nonatriene]",Total Yellowjackets Caught V. pensylvanica,V. pensylvanica; [4],68
same,Total Yellowjackets Caught V. pensylvanica,V. pensylvanica; [5],90
same,Total Yellowjackets Caught V. pensylvanica,V. pensylvanica; [6],47
same,Total Yellowjackets Caught V. pensylvanica,V. pensylvanica; [7],77
same,Total Yellowjackets Caught V. pensylvanica,V. pensylvanica; [8],46
same,Total Yellowjackets Caught V. vulgaris,V. vulgaris; [4],8
same,Total Yellowjackets Caught V. vulgaris,V. vulgaris; [5],8
same,Total Yellowjackets Caught V. vulgaris,V. vulgaris; [6],5
same,Total Yellowjackets Caught V. vulgaris,V. vulgaris; [7],5
same,Total Yellowjackets Caught V. vulgaris,V. vulgaris; [8],1
same,Total Paper Wasps Caught P. dominulus,P. dominulus; [4],7
same,Total Paper Wasps Caught P. dominulus,P. dominulus; [5],2
same,Total Paper Wasps Caught P. dominulus,P. dominulus; [6],13
same,Total Paper Wasps Caught P. dominulus,P. dominulus; [7],8
same,Total Paper Wasps Caught P. dominulus,P. dominulus; [8],5
same,Total Yellowjackets Caught V. atropilosa,V. atropilosa; [9],2
same,Total Yellowjackets Caught V. atropilosa,V. atropilosa; [10],1
same,Total Yellowjackets Caught V. atropilosa,V. atropilosa; [11],0
same,Total Yellowjackets Caught V. atropilosa,V. atropilosa; [12],0
same,Total Yellowjackets Caught V. atropilosa,V. atropilosa; [13],1
same,Total Yellowjackets Caught D. maculata,D. maculata; [9],0
same,Total Yellowjackets Caught D. maculata,D. maculata; [10],0
same,Total Yellowjackets Caught D. maculata,D. maculata; [11],0
same,Total Yellowjackets Caught D. maculata,D. maculata; [12],0
same,Total Yellowjackets Caught D. maculata,D. maculata; [13],0
same,Total Yellowjackets Caught V. acadica,V. acadica; [9],0
same,Total Yellowjackets Caught V. acadica,V. acadica; [10],0
same,Total Yellowjackets Caught V. acadica,V. acadica; [11],0
same,Total Yellowjackets Caught V. acadica,V. acadica; [12],0
same,Total Yellowjackets Caught V. acadica,V. acadica; [13],0
same,Total Yellowjackets Caught V. germanica,V. germanica; [9],0
same,Total Yellowjackets Caught V. germanica,V. germanica; [10],0
same,Total Yellowjackets Caught V. germanica,V. germanica; [11],0
same,Total Yellowjackets Caught V. germanica,V. germanica; [12],0
same,Total Yellowjackets Caught V. germanica,V. germanica; [13],0
same,Total Yellowjackets Caught D. arenaria,D. arenaria; [9],0
same,Total Yellowjackets Caught D. arenaria,D. arenaria; [10],0
same,Total Yellowjackets Caught D. arenaria,D. arenaria; [11],0
same,Total Yellowjackets Caught D. arenaria,D. arenaria; [12],0
same,Total Yellowjackets Caught D. arenaria,D. arenaria; [13],0
same,effect on trap catches of yellowjackets in the top chambers,yellowjackets,significantly increased
same,effect on trap catches of paper wasps in the top chambers,paper wasps,significantly increased
same,effect on trap catches of the vespid workers,"[1]; 0.5 or 1-1.5 mg/day added to the top attractants, especially V. pensylvanica, V. vulgaris and P. dominulus",significantly increased
same,effect on the trap catches,[1]; other release rates (doses) added to the top attractants,no effect
same,attraction alone versus water blank control traps,[2],not different
same,attraction alone versus water blank control traps,[2]; listed as DMNT,not significantly attractive
same,synergism of attraction to mixture of acetic acid and 2-methyl-1-butanol,[3],synergize
same,synergism of attraction to mixture of acetic acid and 2-methyl-1-butanol,"[3]; listed as (E)-4,8-dimenthyl-1,3,7-nonatriene",significantly synergize
